{"source": "patent US20080305544A1", "about": "“Method of Producing Nerve Cell” (KYOWA HAKKO KOGYO CO., LTD. TOKYO, JAPAN, priority 2004, published 2008)", "key": {"ES cell EB5 [1]": {"test_system": "ES cell EB5", "test": "Nerve cell inducing ratio: colonies with neurite / total colonies, differentiation induction of EB5", "assay_type": "cell-based", "settings": "for activity to induce differentiation of embryonic stem cells into nerve cells by the combination of heparin and vitamin B12: substance added to 0.01% heparin and 100 nmol/l vitamin B12, conclusion of Example 2; for induction of nerve cells (nerve cell inducing ratio): FIG. 2", "method": "In the following Examples, an ES cell EB5 [Nature Genet., 24, 372, (2000)] was used as the embryonic stem cell. The EB5 was inoculated into a dish coated with 0.1% of gelatin and sub-cultured at 37° C. in a CO2 incubator ventilated with 5% of carbon dioxide while keeping its undifferentiated state, using G-MEM (Invitrogen) containing 1% fetal bovine serum (manufactured by JRH Biosciences), 10% Knockout Serum Replacement (manufactured by Invitrogen), 1 mmol/l pyruvic acid (manufactured by Sigma), 0.1 mmol/l nonessential amino acids (manufactured by Invitrogen), 0.1 mmol/12-mercaptoethanol (manufactured by Nacalai Tesque), […] blasticidin (manufactured by Invitrogen) and 2×10^3 U/ml ESGRO (manufactured by Chemicon) (to be referred to as “maintenance medium” hereinafter). When differentiation of EB5 is induced, 2.5×10^3 cells of EB5 were inoculated into a 24 well plate coated with 0.1% of gelatin, a medium prepared by eliminating serum, blasticidin and ESGRO from the maintenance medium (hereinafter referred to as “differentiation induction medium”) was added at 1 ml to respective wells, and the cells were allowed to adhere thereto by incubating at 37° C. for 2 hours. Thereafter, 500 μl of PBS containing various concentration of heparin (manufactured by Sigma) or vitamin B12 (cyanocobalamin, manufactured by Nacalai Tesque) (hereinafter referred to as “test solution 1”) was added thereto and incubated at 37° C. for 14 days without changing the medium. Each test condition was carried out in tandem. In this connection, the concentrations of heparin and vitamin B12 mean their concentrations in the test solution 1. On the 14th day after addition of the test solution 1, colonies having a diameter of 50 μm or more were counted using an optical microscope to calculate the number of total colonies. Also, among the colonies, a colony on which neurite was observed was regarded as a nerve cell colony, and the nerve cell inducing ratio was calculated by the following formula. Nerve cell inducing ratio(%)=the number of nerve cell colonies/the number of total colonies×100 Nerve cell inducing differentiation ratio was examined in the same manner as in Example 1, except that PBS containing 0.01% of heparin and 100 nmol/l of vitamin B12 (hereinafter referred to as “test solution 2”), a test solution 3 containing 0.1 μg/ml of biotin [(+)-biotin, manufactured by Wako Pure Chemical Industries] in the test solution 2, a test solution 4 containing 0.42 μg/ml of K4[Fe(CN)6] (manufactured by Nacalai Tesque) in the test solution 2, a test solution 5 containing 0.081 μg/ml of putrescine (manufactured by Sigma) in the test solution 2, a test solution 6 containing 0.1 μg/ml of biotin, 0.42 μg/ml of K4[Fe(CN)6] and 0.081 μg/ml of putrescine in the test solution 2 and a test solution 7 containing 0.01% of heparin, 0.1 […] of biotin, 0.42 μg/ml of K[Fe(CN)6] and 0.081 μg/ml of putrescine were used instead of the test solution 1 in the above-described Example 1."}, "ES cell EB5 [2]": {"test_system": "ES cell EB5", "test": "Number of total colonies formed from EB5 after 14 days of differentiation induction culture", "assay_type": "cell-based", "settings": "vitamin B12 added; heparin 0% vs 0.01% addition condition; 14 days after commencement of culturing; FIG. 1", "method": "In the following Examples, an ES cell EB5 [Nature Genet., 24, 372, (2000)] was used as the embryonic stem cell.\nThe EB5 was inoculated into a dish coated with 0.1% of gelatin and sub-cultured at 37° C. in a CO2 incubator ventilated with 5% of carbon dioxide while keeping its undifferentiated state, using G-MEM (Invitrogen) containing 1% fetal bovine serum (manufactured by JRH Biosciences), 10% Knockout Serum Replacement (manufactured by Invitrogen), 1 mmol/l pyruvic acid (manufactured by Sigma), 0.1 mmol/l nonessential amino acids (manufactured by Invitrogen), 0.1 mmol/12-mercaptoethanol (manufactured by Nacalai Tesque), […] blasticidin (manufactured by Invitrogen) and 2×10^3 U/ml ESGRO (manufactured by Chemicon) (to be referred to as “maintenance medium” hereinafter). […]\nOn the 14th day after addition of the test solution 1, colonies having a diameter of 50 μm or more were counted using an optical microscope to calculate the number of total colonies. Also, among the colonies, a colony on which neurite was observed was regarded as a nerve cell colony, and the nerve cell inducing ratio was calculated by the following formula."}}, "data": [{"compound": "O=C(O)CCCC[C@@H]1SC[C@@H]2NC(=O)N[C@@H]21", "note": "[biotin, (+)-biotin]", "values": [{"measurement": "activity to induce differentiation of embryonic stem cells into nerve cells by the combination of heparin and vitamin B12", "setting": "ES cell EB5 [1]", "result": "reinforced"}]}, {"compound": "NCCCCN", "note": "[putrescine]", "values": [{"measurement": "activity to induce differentiation of embryonic stem cells into nerve cells by the combination of heparin and vitamin B12", "setting": "ES cell EB5 [1]", "result": "reinforced"}]}, {"compound": "cyanocobalamin [vitamin B12]", "values": [{"measurement": "induction of nerve cells (nerve cell inducing ratio)", "setting": "ES cell EB5 [1]; heparin 0% addition condition, vitamin B12 added, 14 days", "result": "hardly induced"}, {"measurement": "induction of nerve cells (nerve cell inducing ratio)", "setting": "ES cell EB5 [1]; heparin 0.01% addition condition, vitamin B12 concentration varied, 14 days", "result": "nerve cells are induced"}]}, {"compound": "heparin", "values": [{"measurement": "induction of nerve cells (number of nerve cell colonies)", "setting": "ES cell EB5 [1]; vitamin B12 not added, heparin concentration varied, 14 days, FIG. 3", "result": "hardly induced"}, {"measurement": "number of total colonies", "setting": "ES cell EB5 [2]", "result": "difference in the number of total colonies was not found"}]}]}
